Laboratory results reported in a compilation of properties of binary mixtures (doi:10.1016/j.molliq.2017.08.088).

Test: xn = mol fraction of the nth substance listed
Details: 101 kPa

CN(CCO)CCO + CCCC[n+]1ccn(C)c1.F[B-](F)(F)F
viscosity [mPa·s]
Details	x2 = 0.1002	x2 = 0.1974	x2 = 0.3	x2 = 0.4001	x2 = 0.4998	x2 = 0.6	x2 = 0.6997	x2 = 0.7998	x2 = 0.8999
293.15 K	89.3	82.9	78.9	75.2	73.6	74.2	79.1	87.9	–
303.15 K	49.9	46.2	–	42.4	42.4	43.8	47.5	53.1	–
313.15 K	30	28	26.4	26.1	26.4	27.7	30.4	34	41.2
323.15 K	18.9	–	17.2	17.2	17.7	–	20.6	23.3	27.8
333.15 K	12.75	–	11.84	12.03	12.44	13.35	14.8	–	19.8
